Earlier results in patent US20250170152A1, “Cannabinoid Dosage Form” (priority 2022, published 2025).
Like-named read-outs stand apart in the source and are kept apart here.

How the values were obtained:
[1] = not given; remark: listed apart in the source
[2] = oral THC formulations
[3] = oral 800 mg CBD, eight subjects (Haney et al., 2016)
[4] = 20 mg/kg/day CBD groups, EMA LGS/DS Assessment Report (Epidiolex)

| SMILES | mean Cmax (one hour after oral capsule containing 5.4 mg CBD (Nadulski et al., 2005a)) [ng/mL] | mean Cmax (oral 10 mg CBD (Guy and Robson, 2004b)) [ng/mL] | mean Cmax [3] [ng/mL] | mean Tmax [3] [h] | time CBD remained detectable after administration (oral capsule 5.4 mg CBD (Nadulski et al., 2005b)) [h] | mean Cmax (oral capsule 5.4 mg CBD, subset (n=12) with standard breakfast meal 1 h after the capsules) [ng/mL] | TEAE decrease of appetite, incidence [1, 4] [%] | weight loss, incidence [1, 4] [%] | TEAE of diarrhoea, incidence ([1]; 5-20 mg/kg/day, LGS/DS population (Epidiolex)) | TEAE of diarrhoea, incidence ([1]; 25-50 mg/kg/day, TSC population, EMA TSC Assessment Report (Epidiolex)) | delay to reach peak plasma concentration [2] [min] |
| --- | --- | --- | --- | --- | --- | --- | --- | --- | --- | --- | --- |
| C=C(C)C1CCC(C)=CC1c1c(O)cc(CCCCC)cc1O (centres unmarked) [CBD, 2-[3-methyl-6-(1-methylethenyl)-2-cyclohexen-1-yl]-5-pentyl-1,3-benzenediol] | 0.93 | 2.47 | 77.9 | 3.0 | 3 to 4 | 1.13 | 22 | 11 | 12.9-21.2% | 30.7-56.2% | – |
| CCCCCc1cc(O)c2c(c1)OC(C)(C)[C@@H]1CCC(C)=C[C@@H]21 [THC, delta-9-tetrahydrocannabinol] | – | – | – | – | – | – | – | – | – | – | ~120 |
